In patent US20210070748A1, “INHIBITORS OF BRUTONS TYROSINE KINASE” (Pharmacyclics LLC, priority 2015, published 2021) one finds IC50 data, which are given here for 14 molecules.

Molecules are shown by their SMILES.

Common to all, as to format: biochemical
The target of one experiment is EGFR (Homo sapiens, UniProt P00533). Kind of experiment: Inhibition of a panel of kinases, in vitro HotSpot kinase assay: EGFR. The conditions noted are these: D-compounds panel data; 1 μM ATP. As for the experimental part:
(§1) The degree of inhibition of a panel of kinases is determined using the in vitro HotSpot kinase assay (purified enzymes, ^33P-ATP, an appropriate substrate and 1 μM ATP).

Another experiment concerns the target LCK (Homo sapiens, UniProt P06239). Kind of experiment: Inhibition of a panel of kinases, in vitro HotSpot kinase assay: LCK. Particulars: D-compounds panel data; 1 μM ATP; read-out: IC50 LCK.
The target in a further experiment is T1, ITK (Homo sapiens, UniProt Q08881).
T1 sequence (Q08881 1-620): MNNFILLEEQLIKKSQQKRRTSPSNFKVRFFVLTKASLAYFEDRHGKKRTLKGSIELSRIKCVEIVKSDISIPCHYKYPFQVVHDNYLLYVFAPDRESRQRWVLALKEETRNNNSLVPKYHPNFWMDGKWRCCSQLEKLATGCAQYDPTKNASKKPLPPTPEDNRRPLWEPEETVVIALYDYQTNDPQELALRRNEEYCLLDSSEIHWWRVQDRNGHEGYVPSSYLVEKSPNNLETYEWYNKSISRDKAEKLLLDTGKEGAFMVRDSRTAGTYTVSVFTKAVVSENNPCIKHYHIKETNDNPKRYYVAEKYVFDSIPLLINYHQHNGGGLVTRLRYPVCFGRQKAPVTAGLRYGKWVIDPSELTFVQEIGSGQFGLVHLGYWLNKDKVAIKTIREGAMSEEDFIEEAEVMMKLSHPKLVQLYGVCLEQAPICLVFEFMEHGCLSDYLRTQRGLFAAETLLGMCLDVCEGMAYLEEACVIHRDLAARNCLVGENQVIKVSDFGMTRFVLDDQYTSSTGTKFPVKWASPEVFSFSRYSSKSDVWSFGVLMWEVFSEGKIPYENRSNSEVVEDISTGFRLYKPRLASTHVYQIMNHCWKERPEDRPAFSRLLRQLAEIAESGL
Kind of experiment: Inhibition of a panel of kinases, in vitro HotSpot kinase assay: ITK. The conditions noted are these: D-compounds panel data; 1 μM ATP. The procedure: as §1

Another experiment deals with SRC (Homo sapiens, UniProt P12931). Kind of experiment: Inhibition of a panel of kinases, in vitro HotSpot kinase assay: SRC. Particulars: D-compounds panel data; 1 μM ATP. As for the experimental part:
as §1

For the next experiment, the target named is T2, TEC (Homo sapiens, UniProt P42680).
T2 sequence (P42680 1-631): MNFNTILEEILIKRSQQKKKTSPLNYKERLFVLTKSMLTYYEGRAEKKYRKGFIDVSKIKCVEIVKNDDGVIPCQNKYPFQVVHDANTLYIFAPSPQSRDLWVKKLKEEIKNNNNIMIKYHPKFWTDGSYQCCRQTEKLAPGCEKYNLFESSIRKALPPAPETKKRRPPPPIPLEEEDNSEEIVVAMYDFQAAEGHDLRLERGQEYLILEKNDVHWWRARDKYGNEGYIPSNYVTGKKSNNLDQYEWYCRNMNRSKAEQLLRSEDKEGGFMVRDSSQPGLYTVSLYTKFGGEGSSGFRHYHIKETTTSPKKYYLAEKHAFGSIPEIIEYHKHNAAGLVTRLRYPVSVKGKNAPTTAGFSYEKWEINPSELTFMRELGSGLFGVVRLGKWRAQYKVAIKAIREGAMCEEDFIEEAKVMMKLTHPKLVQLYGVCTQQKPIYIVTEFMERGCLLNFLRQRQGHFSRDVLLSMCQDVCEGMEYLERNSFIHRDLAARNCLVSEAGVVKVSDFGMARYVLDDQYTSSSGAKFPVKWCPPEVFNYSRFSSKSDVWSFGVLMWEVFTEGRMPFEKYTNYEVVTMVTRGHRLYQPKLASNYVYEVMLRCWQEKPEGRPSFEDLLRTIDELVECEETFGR
Kind of experiment: Inhibition of a panel of kinases, in vitro HotSpot kinase assay: TEC. Particulars: D-compounds panel data; 1 μM ATP. The procedure:
as §1

Sequence of EGFR (P00533 25-1210): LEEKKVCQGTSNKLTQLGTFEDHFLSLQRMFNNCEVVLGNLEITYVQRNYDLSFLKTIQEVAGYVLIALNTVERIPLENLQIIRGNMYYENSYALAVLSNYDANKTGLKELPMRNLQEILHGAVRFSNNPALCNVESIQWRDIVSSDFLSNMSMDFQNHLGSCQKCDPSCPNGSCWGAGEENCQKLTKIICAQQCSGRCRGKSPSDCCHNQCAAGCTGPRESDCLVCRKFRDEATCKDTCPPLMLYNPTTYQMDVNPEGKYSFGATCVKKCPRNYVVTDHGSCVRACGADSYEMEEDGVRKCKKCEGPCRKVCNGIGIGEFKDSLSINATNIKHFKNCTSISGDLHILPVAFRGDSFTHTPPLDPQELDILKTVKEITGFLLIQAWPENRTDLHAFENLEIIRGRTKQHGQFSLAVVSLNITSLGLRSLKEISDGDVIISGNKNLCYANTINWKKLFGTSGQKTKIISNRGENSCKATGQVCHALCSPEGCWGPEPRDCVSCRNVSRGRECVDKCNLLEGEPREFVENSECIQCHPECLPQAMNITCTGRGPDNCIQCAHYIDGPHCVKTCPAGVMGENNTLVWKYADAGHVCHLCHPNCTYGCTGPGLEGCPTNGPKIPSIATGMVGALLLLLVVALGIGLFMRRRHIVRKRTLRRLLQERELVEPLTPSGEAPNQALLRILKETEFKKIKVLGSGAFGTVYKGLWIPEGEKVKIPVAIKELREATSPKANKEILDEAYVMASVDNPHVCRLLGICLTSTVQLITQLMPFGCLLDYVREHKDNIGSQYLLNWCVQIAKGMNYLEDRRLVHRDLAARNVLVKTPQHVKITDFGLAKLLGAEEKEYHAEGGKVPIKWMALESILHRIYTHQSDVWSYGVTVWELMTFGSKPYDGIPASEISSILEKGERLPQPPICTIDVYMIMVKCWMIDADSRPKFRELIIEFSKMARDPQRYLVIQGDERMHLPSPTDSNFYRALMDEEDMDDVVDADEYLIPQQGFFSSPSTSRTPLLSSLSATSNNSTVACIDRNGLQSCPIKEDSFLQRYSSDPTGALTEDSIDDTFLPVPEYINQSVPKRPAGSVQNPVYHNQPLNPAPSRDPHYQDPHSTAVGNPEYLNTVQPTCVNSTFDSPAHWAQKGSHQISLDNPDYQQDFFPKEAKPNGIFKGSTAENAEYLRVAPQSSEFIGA
Sequence of LCK (P06239 whole entry): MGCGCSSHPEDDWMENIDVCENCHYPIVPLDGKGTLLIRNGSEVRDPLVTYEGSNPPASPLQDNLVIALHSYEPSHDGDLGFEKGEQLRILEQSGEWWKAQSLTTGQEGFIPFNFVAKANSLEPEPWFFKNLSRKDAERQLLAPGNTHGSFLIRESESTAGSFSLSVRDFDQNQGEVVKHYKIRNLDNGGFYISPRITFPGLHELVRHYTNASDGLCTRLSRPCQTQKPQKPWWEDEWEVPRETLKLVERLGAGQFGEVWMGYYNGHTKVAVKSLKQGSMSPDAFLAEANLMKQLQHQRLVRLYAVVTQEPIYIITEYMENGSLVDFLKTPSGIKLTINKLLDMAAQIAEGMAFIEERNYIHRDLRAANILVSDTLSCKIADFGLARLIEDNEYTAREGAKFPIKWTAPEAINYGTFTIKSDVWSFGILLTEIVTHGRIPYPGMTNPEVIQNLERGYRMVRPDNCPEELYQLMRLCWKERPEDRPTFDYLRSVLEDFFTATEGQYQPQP
Sequence of SRC (P12931 whole entry): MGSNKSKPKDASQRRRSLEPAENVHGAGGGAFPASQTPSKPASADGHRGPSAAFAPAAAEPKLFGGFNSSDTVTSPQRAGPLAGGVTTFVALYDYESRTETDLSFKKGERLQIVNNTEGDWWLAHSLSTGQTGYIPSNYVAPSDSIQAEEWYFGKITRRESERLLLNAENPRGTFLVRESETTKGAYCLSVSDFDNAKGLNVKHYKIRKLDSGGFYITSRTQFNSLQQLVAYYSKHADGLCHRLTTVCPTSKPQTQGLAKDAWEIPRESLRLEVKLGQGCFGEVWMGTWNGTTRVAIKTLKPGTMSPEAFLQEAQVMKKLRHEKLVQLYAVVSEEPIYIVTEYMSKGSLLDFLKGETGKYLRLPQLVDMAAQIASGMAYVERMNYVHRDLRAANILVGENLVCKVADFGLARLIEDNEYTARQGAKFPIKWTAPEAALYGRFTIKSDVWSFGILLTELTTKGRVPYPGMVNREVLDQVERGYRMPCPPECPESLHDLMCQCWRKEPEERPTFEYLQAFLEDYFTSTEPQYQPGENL

`C[C@@H]1[C@H](NC(=O)c2ccc(C3CC3)cc2F)CCCN1c1cnc(C(N)=O)c(Nc2ccc(C3(C)CCN(C4CCC4)CC3)cc2)n1` [Example D-134, 3-{[4-(1-cyclobutyl-4-methylpiperidin-4-yl)phenyl]amino}-5-[(2R,3R)-3-(4-cyclopropyl-2-fluorobenzamido)-2-methylpiperidin-1-yl]pyrazine-2-carboxamide]: the IC50 against EGFR lay in the range of 100 to 1000 nM; on LCK, 10 to 100 nM; against ITK, 10 to 100 nM; at SRC, 10 to 100 nM; at TEC it was 10 to 100 nM.

Consider `NC(=O)c1ncc(N2CCC[C@@H](n3ccc4cc(C5CC5)ccc4c3=O)C2)nc1Nc1ccc2ncccc2c1` [Example D-168, 5-[(3R)-3-(6-cyclopropyl-1-oxo-1,2-dihydroisoquinolin-2-yl)piperidin-1-yl]-3-[(quinolin-6-yl)amino]pyrazine-2-carboxamide], for which the IC50 at EGFR was over 10000 nM; on LCK, over 10000 nM; on ITK, over 10000 nM; against SRC, over 10000 nM; against TEC, 100 to 1000 nM.

For the molecule `C[C@@H]1[C@H](NC(=O)c2ccc(C3CC3)cc2F)CCCN1c1cnc(C(N)=O)c(Nc2ccc(S(C)(=O)=O)cc2)n1` [Example D-133, 5-[(2R,3R)-3-(4-cyclopropyl-2-fluorobenzamido)-2-methylpiperidin-1-yl]-3-[(4-methanesulfonylphenyl)amino]pyrazine-2-carboxamide], the IC50 fell in the range of 1000 to 10000 nM on EGFR; 100 to 1000 nM on LCK; 100 to 1000 nM against ITK; 100 to 1000 nM on SRC; 100 to 1000 nM against TEC.

Turning to `C[C@@H]1[C@H](NC(=O)c2ccc(C3CC3)cc2F)CCCN1c1cnc(C(N)=O)c(Nc2ccn(C)n2)n1` [Example D-129, 5-[(2R,3R)-3-(4-cyclopropyl-2-fluorobenzamido)-2-methylpiperidin-1-yl]-3-[(1-methyl-1H-pyrazol-3-yl)amino]pyrazine-2-carboxamide], the IC50 at EGFR was 1000 to 10000 nM; at LCK, over 10000 nM; on ITK, over 10000 nM; against SRC it was over 10000 nM; on TEC it was over 10000 nM.

In the case of `C[C@@H]1[C@H](NC(=O)c2ccc(C3CC3)cc2F)CCCN1c1cnc(C(N)=O)c(Nc2ccc(C3(C)CCN(C4CC4)CC3)cc2)n1` [Example D-138, 5-[(2R,3R)-3-(4-cyclopropyl-2-fluorobenzamido)-2-methylpiperidin-1-yl]-3-{[4-(1-cyclopropyl-4-methylpiperidin-4-yl)phenyl]amino}pyrazine-2-carboxamide], the IC50 at EGFR is 100 to 1000 nM; on LCK, 10 to 100 nM; against ITK it was 100 to 1000 nM; against SRC it was 100 to 1000 nM; against TEC it was 10 to 100 nM.

Consider `C[C@@H]1CC[C@H](NC(=O)c2ccc(C3CC3)cc2)CN1c1cnc(C(N)=O)c(Nc2ccc(N3CCN(C)CC3)cc2)n1` [Example D-153, 5-[(2R,5S)-5-(4-cyclopropylbenzamido)-2-methylpiperidin-1-yl]-3-{[4-(4-methylpiperazin-1-yl)phenyl]amino}pyrazine-2-carboxamide], for which the IC50 on EGFR was 100 to 1000 nM; at LCK, 10 to 100 nM; on ITK it was 10 to 100 nM; at SRC it was 10 to 100 nM; at TEC, at most 10 nM.

In the case of `COC(C)(C)c1ccc(C(=O)N[C@@H]2CCCN(c3cnc(C(N)=O)c(Nc4cnn(C)c4)n3)[C@@H]2C)cc1` [Example D-161, 5-[(2R,3R)-3-[4-(2-methoxypropan-2-yl)benzamido]-2-methylpiperidin-1-yl]-3-[(1-methyl-1H-pyrazol-4-yl)amino]pyrazine-2-carboxamide], the IC50 was 1000 to 10000 nM on EGFR; 100 to 1000 nM on LCK; 100 to 1000 nM against ITK; 10 to 100 nM against SRC; at most 10 nM against TEC.

For the molecule `C[C@@H]1[C@H](NC(=O)c2ccc(C3CC3)cc2F)CCCN1c1cnc(C(N)=O)c(Nc2ccc(S(=O)(=O)N3CCCC3)cc2)n1` [Example D-139, 5-[(2R,3R)-3-(4-cyclopropyl-2-fluorobenzamido)-2-methylpiperidin-1-yl]-3-{[4-(pyrrolidine-1-sulfonyl)phenyl]amino}pyrazine-2-carboxamide], the IC50 is 1000 to 10000 nM on EGFR; over 10000 nM at LCK; over 10000 nM at ITK; over 10000 nM against SRC; 100 to 1000 nM on TEC.

As for `C[C@@H]1[C@H](NC(=O)c2ccc(C3CC3)cc2)CCCN1c1cnc(C(N)=O)c(Nc2ccc(OC3C[C@H]4CC[C@@H](C3)N4C)cc2)n1` (stereo partly drawn) [Example D-104, 5-[(2R,3R)-3-(4-cyclopropylbenzamido)-2-methylpiperidin-1-yl]-3-[(4-{[(1R,5S)-8-methyl-8-azabicyclo[3.2.1]octan-3-yl]oxy}phenyl)amino]pyrazine-2-carboxamide], the IC50 at EGFR is 100 to 1000 nM; on LCK, 10 to 100 nM; against ITK it was 10 to 100 nM; against SRC, 10 to 100 nM; at TEC, at most 10 nM.

Take `C[C@@H]1[C@H](NC(=O)N(C)C)CCCN1c1cnc(C(N)=O)c(Nc2cc(C3CCN(C4CCCC4)CC3)ns2)n1` [Example D-163, 3-{[3-(1-cyclopentylpiperidin-4-yl)-1,2-thiazol-5-yl]amino}-5-[(2R,3R)-3-[(dimethylcarbamoyl)amino]-2-methylpiperidin-1-yl]pyrazine-2-carboxamide]: the IC50 against EGFR was 100 to 1000 nM; on LCK, under 10 nM; on ITK, 10 to 100 nM; against SRC, at most 10 nM; at TEC it was 10 to 100 nM.

As for `C[C@@H]1[C@H](NC(=O)c2ccc(C3CC3)cc2)CCCN1c1cnc(C(N)=O)c(Nc2ccc(C3(C)CCN(C4CCCC4)CC3)cc2)n1` [Example D-112, 3-{[4-(1-cyclopentyl-4-methylpiperidin-4-yl)phenyl]amino}-5-[(2R,3R)-3-(4-cyclopropylbenzamido)-2-methylpiperidin-1-yl]pyrazine-2-carboxamide], the IC50 against EGFR was 100 to 1000 nM; on LCK, under 10 nM; on ITK, 10 to 100 nM; against SRC it was at most 10 nM; on TEC, at most 10 nM.

With `C[C@@H]1[C@H](NC(=O)c2ccc(C3CC3)cc2)CCCN1c1cnc(C(N)=O)c(Nc2ccc(OC3CCN(C4CCCC4)CC3)cc2)n1` [Example D-101, 3-({4-[(1-cyclopentylpiperidin-4-yl)oxy]phenyl}amino)-5-[(2R,3R)-3-(4-cyclopropylbenzamido)-2-methylpiperidin-1-yl]pyrazine-2-carboxamide], the IC50 is 100 to 1000 nM at EGFR; 10 to 100 nM on LCK; 10 to 100 nM against ITK; 10 to 100 nM on SRC; at most 10 nM against TEC.

For `C[C@@H]1[C@H](NC(=O)c2ccc(C3CC3)cc2F)CCCN1c1cnc(C(N)=O)c(Nc2cnn(C)c2)c1` [Example D-117, 5-[(2R,3R)-3-(4-cyclopropyl-2-fluorobenzamido)-2-methylpiperidin-1-yl]-3-[(1-methyl-1H-pyrazol-4-yl)amino]pyridine-2-carboxamide], the IC50 lay in the range of 1000 to 10000 nM against EGFR; 100 to 1000 nM at LCK; 1000 to 10000 nM on ITK; 100 to 1000 nM on SRC; 100 to 1000 nM on TEC.

`C[C@@H]1[C@H](NC(=O)c2ccc(C(C)(C)N(C)C)cc2)CCCN1c1cnc(C(N)=O)c(Nc2cnn(C)c2)n1` [Example D-108, 5-[(2R,3R)-3-{4-[2-(dimethylamino)propan-2-yl]benzamido}-2-methylpiperidin-1-yl]-3-[(1-methyl-1H-pyrazol-4-yl)amino]pyrazine-2-carboxamide]: the IC50 fell in the range of 1000 to 10000 nM against EGFR; 100 to 1000 nM on LCK; 100 to 1000 nM against ITK; 10 to 100 nM at SRC; 10 to 100 nM against TEC.

As usually defined, the IC50 is the concentration at which inhibition is half-maximal.
